The text below walks through data of patent US12187713B2, “Immunomodulators, compositions and methods thereof” (Betta Pharmaceuticals Co., Ltd, priority 2019, dated 2025).

Data set [1] concerns the target PD-1/PD-L1 (Homo sapiens (Human), UniProt Q9NZQ7). In words: PD-1/PD-L1 Binding Assay (Alphascreen). A digest of the protocol: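 PD-1/PD-L1 binding detected by anti-6×His acceptor and streptavidin donor beads after 120 min in the dark at 25 °C. Beforehand, the two proteins were incubated 15 min at 25 °C with inhibitor at 0.015–300 nM (1% DMSO). IC50 comes from a log concentration–response curve.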
A general note: Bead proximity is the source of the signal in Alpha formats.

Data set [2] is described as follows: Pharmacokinetic Assay, single oral dose 5 mg/kg (Table 12). The format is in vivo. The following applies: mouse, plasma concentration, C57 female mice, single oral dose 5 mg/kg. As for the experimental part:
Adult C57 female mice were received to single-dose of the test compounds with 15% DMSO, 10% Kolliphor^@HS 15 and 75% saline as excipients, the mice (n=3) were giving oral administration (intragastric administration) with the compounds at a dose of 5 mg/kg. Time of blood collection: 30 min, 2 h, 4 h. approximately 0.1 mL of whole blood was collected from retro-orbital venous plexus, and placed into tubes that contained K2-EDTA as an anticoagulant. The whole blood were centrifuged at 4° C. and 4000 rpm for 10 min. The plasma was transferred into centrifuge tubes, and stored at −20° C. until being analyzed. Concentrations of test compounds in the plasma samples were analyzed with liquid chromatography-tandem mass spectrometry (LC-MS/MS). Plasma concentration-time data of individual animals was analyzed using Microsoft Excel 2010.

SMILES strings stand for the structures.

Chain of PD-1/PD-L1 (Q9NZQ7 19-238): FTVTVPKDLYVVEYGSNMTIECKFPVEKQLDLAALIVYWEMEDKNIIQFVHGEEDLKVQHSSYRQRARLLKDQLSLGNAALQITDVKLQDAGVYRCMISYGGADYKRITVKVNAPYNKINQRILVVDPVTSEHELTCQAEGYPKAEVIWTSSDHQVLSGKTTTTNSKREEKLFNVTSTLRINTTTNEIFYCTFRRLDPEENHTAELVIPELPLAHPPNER

One may read the IC50 as the concentration needed to halve the response being measured. Low values mean greater potency, high ones weaker potency. For `Cc1c(-c2nc3cc(CN4CC(C#N)C4)c(OC(F)F)cc3o2)cccc1-c1cccc(-c2nc3cc(CN4CCC[C@H]4C(=O)O)c(OC(F)F)cc3o2)c1C` [Example 80, ((2-(3′-(5-((3-cyanoazetidin-1-yl)methyl)-6-(difluoromethoxy)benzo[d]oxazol-2-yl)-2,2′-dimethyl-[1,1′-biphenyl]-3-yl)-6-(difluoromethoxy)benzo[d]oxazol-5-yl)methyl)-L-proline], in data set [1] (range symbols), the concentration for half-maximal inhibition (IC50) lay in the range of 5 to 50 nM. Besides, in data set [2], the concentration at 0.5 h is 247 ng/mL, the concentration at 2 h was 299 ng/mL and the concentration at 4 h amounted to 167 ng/mL.

In data set [1] (range symbols), `C=C1CN(Cc2cc3nc(-c4cccc(-c5cccc(-c6nc7cc(CN8CCC[C@H]8C(=O)O)c(OC(F)F)cc7o6)c5C)c4C)oc3cc2OC(F)F)C1` [Example 81, ((6-(difluoromethoxy)-2-(3′-(6-(difluoromethoxy)-5-((3-methyleneazetidin-1-yl)methyl)benzo[d]oxazol-2-yl)-2,2′-dimethyl-[1,1′-biphenyl]-3-yl)benzo[d]oxazol-5-yl)methyl)-L-proline] displayed an IC50 of 5 to 50 nM. In data set [2], this compound gave a concentration at 0.5 h of 115 ng/mL, a concentration at 2 h of 468 ng/mL and a concentration at 4 h of 383 ng/mL.

`Cc1c(-c2nc3cc(CN4CC[C@@H](C(=O)O)C4)c(OC(F)F)cc3o2)cccc1-c1cccc(-c2nc3cc(CN4CC(C)(C)C4)c(OC(F)F)cc3o2)c1C` [Example 85, (R)-1-((6-(difluoromethoxy)-2-(3′-(6-(difluoromethoxy)-5-((3,3-dimethylazetidin-1-yl)methyl)benzo[d]oxazol-2-yl)-2,2′-dimethyl-[1,1′-biphenyl]-3-yl)benzo[d]oxazol-5-yl)methyl)pyrrolidine-3-carboxylic acid] had an IC50 in data set [1] (range symbols) of 0.1 to 5 nM. Further, in data set [2], the concentration at 0.5 h worked out at 75.9 ng/mL, the concentration at 2 h turned out to be 146 ng/mL and the concentration at 4 h amounted to 135 ng/mL.

Regarding `Cc1c(-c2nc3cc(CN4CCC[C@H]4C(=O)O)c(OC(F)F)cc3o2)cccc1-c1cccc(-c2nc3cc(CN4CC5CC4C5)cc(C(F)(F)F)c3o2)c1C` [Example 89], in data set [1] (range symbols), the half-maximal inhibitory concentration (IC50) fell in the range of 0.1 to 5 nM. In data set [2], this compound came in with a concentration at 0.5 h of 21.3 ng/mL, a concentration at 2 h of 124 ng/mL and a concentration at 4 h of 109 ng/mL.

The compound `Cc1c(-c2nc3cc(CN4CCC[C@H]4C(=O)O)c(OC(F)F)cc3o2)cccc1-c1cccc(-c2nc3cc(CN4CCCC4)c(C(F)(F)F)cc3o2)c1C` [Example 101, ((6-(difluoromethoxy)-2-(2,2′-dimethyl-3′-(5-(pyrrolidin-1-ylmethyl)-6-(trifluoromethyl)benzo[d]oxazol-2-yl)-[1,1′-biphenyl]-3-yl)benzo[d]oxazol-5-yl)methyl)-L-proline] came in with an IC50 in data set [1] (numeric values) of 2.2 nM. Moreover, in data set [2], the concentration at 0.5 h is 178 ng/mL, the concentration at 2 h was 640 ng/mL and the concentration at 4 h is 579 ng/mL.

`Cc1c(-c2nc3cc(CN4CCC[C@H]4C(=O)O)c(OC(F)F)cc3o2)cccc1-c1cccc(-c2nc3cc(CN4CCCC4)c(F)c(F)c3o2)c1C` [Example 102, ((2-(3′-(6,7-difluoro-5-(pyrrolidin-1-ylmethyl)benzo[d]oxazol-2-yl)-2,2′-dimethyl-[1,1′-biphenyl]-3-yl)-6-(difluoromethoxy)benzo[d]oxazol-5-yl)methyl)-L-proline] showed a concentration for half-maximal inhibition (IC50) in data set [1] (numeric values) of 18 nM. Moreover, in data set [2], the concentration at 0.5 h is 85.9 ng/mL, the concentration at 2 h was 282 ng/mL and the concentration at 4 h came out at 292 ng/mL.

On to `Cc1c(-c2nc3cc(CN4CCC[C@H]4C(=O)O)c(OC(F)F)cc3o2)cccc1-c1cccc(-c2nc3cc(CN4CC[C@@H](C)C4)cnc3o2)c1C` [Example 114, ((6-(difluoromethoxy)-2-(2,2′-dimethyl-3′-(6-(((R)-3-methylpyrrolidin-1-yl)methyl)oxazolo [5,4-b]pyridin-2-yl)-[1,1′-biphenyl]-3-yl)benzo[d]oxazol-5-yl)methyl)-L-proline], for which the IC50 in data set [1] (numeric values) turned out to be 1 nM. In data set [2], this compound showed a concentration at 0.5 h of 65.6 ng/mL, a concentration at 2 h of 237 ng/mL and a concentration at 4 h of 152 ng/mL.

For the compound `COc1c(-c2nc3cc(CN4CCCC4)c(F)c(F)c3o2)cccc1-c1cccc(-c2nc3cc(CN4CCC[C@H]4C(=O)O)c(OC(F)F)cc3o2)c1C` [Example 117, ((2-(3′-(6,7-difluoro-5-(pyrrolidin-1-ylmethyl)benzo[d]oxazol-2-yl)-2′-methoxy-2-methyl-[1,1′-biphenyl]-3-yl)-6-(difluoromethoxy)benzo[d]oxazol-5-yl)methyl)-L-proline], the IC50 in data set [1] (range symbols) was 0.1 to 5 nM. Besides, in data set [2], the concentration at 0.5 h came to 121 ng/mL, the concentration at 2 h was found to be 319 ng/mL and the concentration at 4 h was 243 ng/mL.

On to `Cc1c(-c2nc3cc(CN4CCC[C@H]4C(=O)O)c(OC(F)F)cc3o2)cccc1-c1cccc(-c2nc3cc(CN4CCCC4)cc(C#N)c3o2)c1C` [Example 127, ((2-(3′-(7-cyano-5-(pyrrolidin-1-ylmethyl)benzo[d]oxazol-2-yl)-2,2′-dimethyl-[1,1′-biphenyl]-3-yl)-6-(difluoromethoxy)benzo[d]oxazol-5-yl)methyl)-L-proline], for which, in data set [1] (numeric values), the IC50 is 3.1 nM. In addition, in data set [2], the concentration at 0.5 h is 61.3 ng/mL, the concentration at 2 h was 253 ng/mL and the concentration at 4 h turned out to be 216 ng/mL.

As to `Cc1c(-c2nc3cc(CN4CCC[C@H]4C(=O)O)c(OC(F)F)cc3o2)cccc1-c1cccc(-c2nc3cc(CN4CC[C@@H](C)C4)cc(C#N)c3o2)c1C` [Example 131, ((2-(3′-(7-cyano-5-(((R)-3-methylpyrrolidin-1-yl)methyl)benzo[d]oxazol-2-yl)-2,2′-dimethyl-[1,1′-biphenyl]-3-yl)-6-(difluoromethoxy)benzo[d]oxazol-5-yl)methyl)-L-proline], in data set [1] (numeric values), the IC50 turned out to be 2.3 nM. In data set [2], this compound gave a concentration at 0.5 h of 108 ng/mL, a concentration at 2 h of 301 ng/mL and a concentration at 4 h of 470 ng/mL.

The compound `Cc1c(-c2nc3cc(CN4CCC[C@H]4C(=O)O)c(OC(F)F)cc3o2)cccc1-c1cccc(-c2nc3cc(CN(C)CC#N)cc(C#N)c3o2)c1C` [Example 136, ((2-(3′-(7-cyano-5-(((cyanomethyl) (methyl)amino)methyl)benzo [d]oxazol-2-yl)-2,2′-dimethyl-[1,1′-biphenyl]-3-yl)-6-(difluoromethoxy)benzo[d]oxazol-5-yl)methyl)-L-proline] returned an IC50 in data set [1] (range symbols) of 0.1 to 5 nM. In data set [2], this compound yielded a concentration at 0.5 h of 673 ng/mL, a concentration at 2 h of 736 ng/mL and a concentration at 4 h of 545 ng/mL.

On to `Cc1c(-c2nc3cc(CN4CCC[C@H]4C(=O)O)c(OC(F)F)cc3o2)cccc1-c1cccc(-c2nc3cc(CN4CCC(C#N)C4)cc(C#N)c3o2)c1C` (stereo partly drawn) [Example 142, ((2-(3′-(7-cyano-5-((3-cyanopyrrolidin-1-yl)methyl)benzo[d]oxazol-2-yl)-2,2′-dimethyl-[1,1′-biphenyl]-3-yl)-6-(difluoromethoxy)benzo[d]oxazol-5-yl)methyl)-L-proline], for which the IC50 in data set [1] (range symbols) was in the range of 0.1 to 5 nM. In data set [2], the concentration at 0.5 h was 211 ng/mL, the concentration at 2 h is 243 ng/mL and the concentration at 4 h was determined as 171 ng/mL.

With `C#CC1(O)CN(Cc2cc(C#N)c3oc(-c4cccc(-c5cccc(-c6nc7cc(CN8CCC[C@H]8C(=O)O)c(OC(F)F)cc7o6)c5C)c4C)nc3c2)C1` [Example 144, ((2-(3′-(7-cyano-5-((3-ethynyl-3-hydroxyazetidin-1-yl)methyl)benzo[d]oxazol-2-yl)-2,2′-dimethyl-[1,1′-biphenyl]-3-yl)-6-(difluoromethoxy)benzo[d]oxazol-5-yl)methyl)-L-proline], in data set [1] (range symbols), the IC50 fell in the range of 0.1 to 5 nM. In addition, in data set [2], the concentration at 0.5 h amounted to 243 ng/mL, the concentration at 2 h was 386 ng/mL and the concentration at 4 h was 222 ng/mL.

Turning to `Cc1c(-c2nc3cc(CN4CCC[C@H]4C(=O)O)c(OC(F)F)cc3o2)cccc1-c1cccc(-c2nc3cc(CN4CCC(F)C4)cc(C#N)c3o2)c1C` (stereo partly drawn) [Example 162, ((2-(3′-(7-cyano-5-((3-fluoropyrrolidin-1-yl)methyl)benzo[d]oxazol-2-yl)-2,2′-dimethyl-[1,1′-biphenyl]-3-yl)-6-(difluoromethoxy)benzo[d]oxazol-5-yl)methyl)-L-proline], the IC50 in data set [1] (range symbols) was 5 to 50 nM. In addition, in data set [2], the concentration at 0.5 h was 277 ng/mL, the concentration at 2 h was 670 ng/mL and the concentration at 4 h is 441 ng/mL.

On to `Cc1c(-c2nc3cc(CN4CCC[C@H]4C(=O)O)c(OC(F)F)cc3o2)cccc1-c1cccc(-c2nc3cc(CN4CC(F)C(F)C4)cc(C#N)c3o2)c1C` (stereo partly drawn) [Example 164, ((2-(3′-(7-cyano-5-((3,4-difluoropyrrolidin-1-yl)methyl)benzo [d]oxazol-2-yl)-2,2′-dimethyl-[1,1′-biphenyl]-3-yl)-6-(difluoromethoxy)benzo[d]oxazol-5-yl)methyl)-L-proline], for which the IC50 in data set [1] (range symbols) is 5 to 50 nM. In data set [2], this compound displayed a concentration at 0.5 h of 294 ng/mL, a concentration at 2 h of 877 ng/mL and a concentration at 4 h of 853 ng/mL.

As for `Cc1c(-c2nc3cc(CN4CCC[C@H]4C(=O)O)c(OC(F)F)cc3o2)cccc1-c1cccc(-c2nc3cc(CN4CC[C@@H](C#N)C4)cc(C#N)c3o2)c1C` [Example 165, ((2-(3′-(7-cyano-5-(((R)-3-cyanopyrrolidin-1-yl)methyl)benzo[d]oxazol-2-yl)-2,2′-dimethyl-[1,1′-biphenyl]-3-yl)-6-(difluoromethoxy)benzo[d]oxazol-5-yl)methyl)-L-proline], in data set [1] (range symbols), the concentration for half-maximal inhibition (IC50) fell in the range of 0.1 to 5 nM. In data set [2], this compound registered a concentration at 0.5 h of 376 ng/mL, a concentration at 2 h of 404 ng/mL and a concentration at 4 h of 219 ng/mL.
